Source: the supplement of paper PMC10307832

Legend:
Assay in all cases: relative viability (nuclei count vs DMSO), 5 days (fraction); higher = more cells survive
[1] = compound: COc1cccc2cc(-c3nc([C@H]4CC[C@H](C(=O)O)CC4)n4ncnc(N)c34)[nH]c12 [OSI-027] + N=C(N)NC(=N)NCCc1ccccc1 [Phenformin] (partner 250 µM)
Method in brief: (§1)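 A single step with final 0.05% Triton X-100, 1% formaldehyde and 1 ug/ml Hoechst fixed the cells and stained nuclei 5 days after treatment. Lung cancer cell lines in 1536-well plates had been treated by pin tool the day after seeding with one drug alone or a fixed anchor-drug dose plus five library-drug doses (not always all listed) in √10 steps, and nuclei were counted on 4× images. Relative viability is the ratio of nuclei in treated wells to nuclei in vehicle wells, taken as the median of duplicate plates.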

[2] = compound: Cc1nc(NC(=O)N2CCC[C@H]2C(N)=O)sc1-c1ccnc(C(C)(C)C(F)(F)F)c1 [Alpelisib] + O=C(c1cc(Cc2n[nH]c(=O)c3ccccc23)ccc1F)N1CCN(C(=O)C2CC2)CC1 [Olaparib] (partner 8 µM)
Method in brief: as §1

[3] = compound: COc1cccc2cc(-c3nc([C@H]4CC[C@H](C(=O)O)CC4)n4ncnc(N)c34)[nH]c12 [OSI-027] + CCNC(=O)c1noc(-c2cc(C(C)C)c(O)cc2O)c1-c1ccc(CN2CCOCC2)cc1 [Luminespib] (partner 0.01 µM)
Method in brief: as §1

[4] = compound: COc1cccc2cc(-c3nc([C@H]4CC[C@H](C(=O)O)CC4)n4ncnc(N)c34)[nH]c12 [OSI-027] + COc1cc2c(Oc3ccc(NC(=O)C4(C(=O)Nc5ccc(F)cc5)CC4)cc3F)ccnc2cc1OCCCN1CCOCC1 [Foretinib] (partner 0.25 µM)
Method in brief: as §1

Row | Cell Line | relative viability ([1]; first compound 0.01 µM) | relative viability ([1]; first compound 0.03162 µM) | relative viability ([1]; first compound 0.1 µM) | relative viability ([1]; first compound 0.3162 µM) | relative viability ([1]; first compound 1 µM) | relative viability ([2]; first compound 0.04 µM) | relative viability ([2]; first compound 0.1265 µM) | relative viability ([2]; first compound 0.4 µM) | relative viability ([2]; first compound 1.265 µM) | relative viability ([2]; first compound 4 µM) | relative viability ([3]; first compound 0.01 µM) | relative viability ([3]; first compound 0.03162 µM) | relative viability ([3]; first compound 0.1 µM) | relative viability ([3]; first compound 0.3162 µM) | relative viability ([3]; first compound 1 µM) | relative viability ([4]; first compound 0.03162 µM) | relative viability ([4]; first compound 0.1 µM) | relative viability ([4]; first compound 0.3162 µM) | relative viability ([4]; first compound 1 µM) | relative viability ([4]; first compound 0.01 µM)
1 | 201T | 0.477 | 0.45 | 0.445 | 0.407 | 0.371 | 0.82 | 0.81 | 0.859 | 0.774 | 0.679 | 1.09 | 1.06 | 1 | 0.948 | 0.485 | 1.09 | 1.07 | 0.944 | 0.459 | 
2 | A549 | 0.176 | 0.154 | 0.122 | 0.171 | 0.0806 | 0.301 |  | 0.434 | 0.3 | 0.23 |  |  |  |  |  | 1.04 | 1.01 | 0.84 | 0.465 | 1.14
3 | A-427 | 0.296 | 0.332 | 0.289 | 0.269 | 0.297 | 0.721 | 0.724 | 0.762 | 0.609 | 0.613 | 0.92 | 0.891 | 0.811 | 0.61 | 0.505 | 1 | 0.89 | 0.707 | 0.423 | 0.952
4 | ABC-1 | 0.237 | 0.244 | 0.236 | 0.2 | 0.197 | 0.775 | 0.596 | 1.01 | 0.885 | 0.804 |  | 0.321 | 0.405 | 0.377 | 0.386 | 0.996 | 0.904 | 0.652 | 0.567 | 1.13
5 | BEN | 0.248 | 0.27 | 0.288 | 0.244 | 0.232 | 1.18 | 1.18 | 1.22 | 1.02 | 0.879 | 0.327 | 0.467 | 0.307 | 0.187 | 0.221 | 0.617 | 0.371 | 0.3 | 0.258 | 0.475
6 | CAL-12T | 0.584 | 0.644 | 0.512 | 0.618 | 0.355 | 0.771 | 0.774 | 0.767 | 0.726 | 0.745 | 0.342 | 0.533 | 0.589 | 0.0997 | 0.117 | 1.22 | 1.14 | 1.13 | 0.488 | 1.16
7 | COR-L23 | 0.53 | 0.445 | 0.476 | 0.445 | 0.206 | 0.327 | 0.338 | 0.573 | 0.294 | 0.253 | 0.851 | 0.671 | 0.772 | 0.499 | 0.289 | 0.844 | 0.993 | 1.06 | 0.772 | 1.01
8 | COR-L 105 | 0.47 | 0.466 | 0.479 | 0.351 | 0.359 | 0.706 | 0.646 | 0.755 | 0.686 | 0.642 | 0.58 | 0.707 | 0.862 | 0.526 | 0.472 | 1.24 | 0.888 | 1.29 | 0.995 | 1.22
9 | Calu-6 |  |  |  |  |  | 0.602 | 0.529 | 0.646 | 0.615 | 0.577 |  |  |  |  |  | 0.936 | 0.837 | 0.784 | 0.593 | 0.989
10 | ChaGo-K-1 | 0.43 | 0.499 | 0.436 | 0.409 | 0.323 | 0.435 | 0.42 | 0.426 | 0.417 | 0.342 | 0.574 | 0.648 | 0.586 | 0.355 | 0.31 | 0.854 | 0.907 | 0.8 | 0.504 | 0.977
11 | EBC-1 |  |  |  |  |  | 0.682 | 0.74 | 0.655 | 0.636 | 0.587 |  |  |  |  |  | 0.104 | 0.1 | 0.116 | 0.124 | 0.112
12 | EKVX | 0.238 | 0.205 | 0.245 | 0.222 | 0.195 | 0.856 | 0.897 | 1.1 | 0.753 | 0.512 | 0.743 | 0.8 | 0.872 | 0.727 | 0.604 | 0.764 | 0.74 | 0.568 | 0.581 | 0.707
13 | EMC-BAC-2 | 0.513 | 0.543 | 0.466 | 0.385 | 0.263 | 0.492 | 0.382 | 0.498 | 0.347 | 0.318 | 1.24 | 1.17 | 0.95 | 0.864 | 0.379 | 0.972 | 0.887 | 0.745 | 0.329 | 0.898
14 | EPLC-272H | 0.309 | 0.258 | 0.3 | 0.276 | 0.211 | 0.936 | 0.838 | 0.75 | 0.393 | 0.485 | 0.38 | 0.267 | 0.147 | 0.2 | 0.228 | 0.498 | 0.594 | 0.41 | 0.236 | 0.712
15 | H3255 | 0.308 | 0.359 | 0.31 | 0.349 | 0.407 | 0.571 | 0.59 | 0.651 | 0.538 | 0.474 | 0.74 | 0.871 | 0.775 | 0.817 | 0.459 | 1.03 | 0.811 | 0.865 | 0.481 | 0.772
16 | HARA | 0.439 | 0.425 | 0.488 | 0.408 | 0.261 | 0.696 | 0.64 | 0.742 | 0.453 | 0.452 | 0.683 | 0.839 | 0.706 | 0.449 | 0.22 | 0.92 | 0.835 | 0.715 | 0.322 | 0.91
17 | HCC-15 | 0.465 | 0.458 | 0.45 | 0.389 | 0.279 | 0.685 | 0.765 | 0.738 | 0.616 | 0.509 | 0.347 | 0.501 | 0.397 | 0.264 | 0.339 | 0.954 | 0.969 | 0.895 | 0.58 | 1.11
